Drawing on patent US20240043404A1 (AbbVie Inc., priority 2009, published 2024), this text covers EC50 and Ki for 17 compounds.

Where two headings read alike, the source gives them in different places. A value given as a limit tells only on which side of the number the result lay.

One assay deals with RS4;11 cells. Nature of the assay: RS4;11 cell viability assay (CellTiter Glo).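 Further: acute lymphoblastic leukemia line RS4,11, EC50 derived from percentage of viable cells after treatment relative to untreated controls, cell killing taken as a measure of Bcl-2 inhibition.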 It is filed as cell-based, human. As to conditions: Homo sapiens, read-out: RS4. On the technique in general: Cellular ATP, detected with luciferase, serves as a proxy for viable cell number.
A further assay has as its target Bcl-2 (Homo sapiens (Human), UniProt P10415). Nature of the assay: Time Resolved-Fluorescence Resonance Energy Transfer (TR-FRET) Bcl-2 binding assay.
The mark [1] stands for this setting: RS4-11, 48 h, 50,000 cells per well, 10% human serum, 48 hours, 11 EC50 Values.
Setting [2] is: RS4-11, Table 5, direct comparison Z=N with corresponding analogs Z=C, 11 EC50.
[3] abbreviates: GST-Bcl-2 1 nM, F-Bak peptide probe 100 nM, Tb-anti-GST 1 nM, < means below limit of detection, read-out: TR-FRET Bcl-2 Binding Ki.
Setting [4] is: Table 5, direct comparison Z=N with corresponding analogs Z=C, read-out: Bcl-2 FRET ki.

Chain of Bcl-2 (P10415 whole entry): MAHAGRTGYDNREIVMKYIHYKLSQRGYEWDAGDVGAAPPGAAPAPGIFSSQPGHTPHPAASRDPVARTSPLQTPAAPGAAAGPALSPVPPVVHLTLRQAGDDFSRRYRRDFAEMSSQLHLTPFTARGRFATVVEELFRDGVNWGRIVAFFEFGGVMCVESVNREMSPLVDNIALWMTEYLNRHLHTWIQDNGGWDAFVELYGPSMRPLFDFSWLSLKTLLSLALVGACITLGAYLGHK
Description for Bcl-2: The samples are then mixed on a shaker for 1 minute and incubated for an additional 3 hours at room temperature. For each assay, the probe/antibody and protein/probe/antibody were included on each assay plate as negative and positive controls, respectively.
The samples were then mixed on a shaker for 1 minute and incubated for an additional 3 hours at room temperature. For each assay, the probe/antibody and protein/probe/antibody were included on each assay plate as negative and positive controls, respectively.
Description for RS4;11 cells: The acute lymphoblastic leukemia (ALL) cell line RS4;11 was used as the primary human cell line to assess the cellular activity of Bcl-2 selective agents in vitro and their efficacy in vivo.
Cell cytotoxicity EC50 values were assessed using CellTiter Glo (Promega) according to the manufacturer's recommendations. The EC50 values were determined as a percentage of viable cells following treatment compared to the untreated control cells.

As to `CC1(C)CC(c2ccc(Cl)cc2)=C(CN2CCN(c3ccc(C(=O)NS(=O)(=O)c4ccc(NCC5CCOCC5)c([N+](=O)[O-])c4)c(Oc4cnc5[nH]ccc5c4)c3)CC2)CO1` [Example 15, 4-(4-{[4-(4-chlorophenyl)-6,6-dimethyl-5,6-dihydro-2H-pyran-3-yl]methyl}piperazin-1-yl)-N-({3-nitro-4-[(tetrahydro-2H-pyran-4-ylmethyl)amino]phenyl}sulfonyl)-2-(1H-pyrrolo[2,3-b]pyridin-5-yloxy)benzamide], the EC50 with RS4;11 cells (setting [1]) is 12.8 nM; in the assay on RS4;11 cells (setting [2]), 13 nM. Besides, the Ki on Bcl-2 (setting [3]) and on Bcl-2 (setting [4]) was less than 0.01 nM throughout.

With `CC1(C)CCC(CN2CCN(c3ccc(C(=O)NS(=O)(=O)c4ccc(OCC5COCCO5)c([N+](=O)[O-])c4)c(Oc4cnc5[nH]ccc5c4)c3)CC2)=C(c2ccc(Cl)cc2)C1` (stereo not shown) [Example 12, 4-(4-{[2-(4-chlorophenyl)-4,4-dimethylcyclohex-1-en-1-yl]methyl}piperazin-1-yl)-N-{[4-(1,4-dioxan-2-ylmethoxy)-3-nitrophenyl]sulfonyl}-2-(1H-pyrrolo[2,3-b]pyridin-5-yloxy)benzamide], the EC50 in the assay on RS4;11 cells (setting [1]) was determined as 34.7 nM; with RS4;11 cells (setting [2]) it was 35 nM. For the same compound, the inhibition constant Ki (in general, a measure of affinity in units of concentration, obtained from inhibition or displacement) at Bcl-2 (setting [4]) is less than 0.01 nM.

`CC1(C)CCC(CN2CCN(c3ccc(C(=O)NS(=O)(=O)c4ccc(N[C@H]5CC[C@H](N6CCOCC6)CC5)c([N+](=O)[O-])c4)c(Oc4cnc5[nH]ccc5c4)c3)CC2)=C(c2ccc(Cl)cc2)C1` [Example 9, Trans-4-(4-{[2-(4-chlorophenyl)-4,4-dimethylcyclohex-1-en-1-yl]methyl}piperazin-1-yl)-N-({4-[(4-morpholin-4-ylcyclohexyl)amino]-3-nitrophenyl}sulfonyl)-2-(1H-pyrrolo[2,3-b]pyridin-5-yloxy)benzamide]: the EC50 in the assay on RS4;11 cells (setting [1]) came out at 14.8 nM; in the assay on RS4;11 cells (setting [2]), 15 nM. Besides, on Bcl-2 (setting [4]), the inhibition constant (Ki) is less than 0.01 nM.

With `COCCNc1ccc(S(=O)(=O)NC(=O)c2ccc(N3CCN(CC4=C(c5ccc(Cl)cc5)CC(C)(C)CC4)CC3)cc2Oc2cnc3[nH]ccc3c2)cc1[N+](=O)[O-]` [Example 10, 4-(4-{[2-(4-chlorophenyl)-4,4-dimethylcyclohex-1-en-1-yl]methyl}piperazin-1-yl)-N-({4-[(2-methoxyethyl)amino]-3-nitrophenyl}sulfonyl)-2-(1H-pyrrolo[2,3-b]pyridin-5-yloxy)benzamide], the EC50 in the assay on RS4;11 cells (setting [1]) and with RS4;11 cells (setting [2]) was 52 nM each time. Besides, the Ki on Bcl-2 (setting [4]) was less than 0.01 nM.

Consider `CN1CCC(Nc2ccc(S(=O)(=O)NC(=O)c3ccc(N4CCN(CC5=C(c6ccc(Cl)cc6)CC(C)(C)CC5)CC4)cc3Oc3cnc4[nH]ccc4c3)cc2[N+](=O)[O-])CC1` [Example 4, 4-(4-{[2-(4-chlorophenyl)-4,4-dimethylcyclohex-1-en-1-yl]methyl}piperazin-1-yl)-N-({4-[(1-methylpiperidin-4-yl)amino]-3-nitrophenyl}sulfonyl)-2-(1H-pyrrolo[2,3-b]pyridin-5-yloxy)benzamide], for which the EC50 was 18.5 nM with RS4;11 cells (setting [1]) and 19 nM in the assay with RS4;11 cells (setting [2]). The inhibition constant Ki at Bcl-2 (setting [4]) was less than 0.01 nM.

On to `CC1(C)CCC(CN2CCN(c3ccc(C(=O)NS(=O)(=O)c4ccc(OC[C@H]5CCN(C6COC6)C5)c([N+](=O)[O-])c4)c(Oc4cnc5[nH]ccc5c4)c3)CC2)=C(c2ccc(Cl)cc2)C1` [Example 184, 4-(4-{[2-(4-chlorophenyl)-4,4-dimethylcyclohex-1-en-1-yl]methyl}piperazin-1-yl)-N-[(3-nitro-4-{[(3S)-1-oxetan-3-ylpyrrolidin-3-yl]methoxy}phenyl)sulfonyl]-2-(1H-pyrrolo[2,3-b]pyridin-5-yloxy)benzamide], for which the EC50 in the assay on RS4;11 cells (setting [1]) was 23.2 nM. Besides, the Ki at Bcl-2 (setting [3]) is less than 0.01 nM.

As to `CC1(C)CCC(CN2CCN(c3ccc(C(=O)NS(=O)(=O)c4ccc(OC[C@H]5CC[C@@H](N6CCOCC6)C5)c([N+](=O)[O-])c4)c(Oc4cnc5[nH]ccc5c4)c3)CC2)=C(c2ccc(Cl)cc2)C1` (relative stereo) [Example 188], in the assay with RS4;11 cells (setting [1]), the EC50 came to 16.4 nM. This compound gave an inhibitory constant (Ki) at Bcl-2 of less than 0.01 nM.

Regarding `CC1(C)CCC(CN2CCN(c3ccc(C(=O)NS(=O)(=O)c4ccc(OC[C@H]5CC[C@H](O)CC5)c([N+](=O)[O-])c4)c(Oc4cnc5[nH]ccc5c4)c3)CC2)=C(c2ccc(Cl)cc2)C1` [Example 196, Trans-4-(4-{[2-(4-chlorophenyl)-4,4-dimethylcyclohex-1-en-1-yl]methyl}piperazin-1-yl)-N-({4-[(4-hydroxycyclohexyl)methoxy]-3-nitrophenyl}sulfonyl)-2-(1H-pyrrolo[2,3-b]pyridin-5-yloxy)benzamide], the Ki on Bcl-2 (setting [3]) was less than 0.01 nM.

Consider `CC1(C)CCC(CN2CCN(c3ccc(C(=O)NS(=O)(=O)c4ccc(NC5CCN(C6CCOCC6)CC5)c([N+](=O)[O-])c4)c(Oc4ccc5[nH]ccc5c4)c3)CC2)=C(c2ccc(Cl)cc2)C1` [Example 89, 4-(4-{[2-(4-chlorophenyl)-4,4-dimethylcyclohex-1-en-1-yl]methyl}piperazin-1-yl)-2-(1H-indol-5-yloxy)-N-({3-nitro-4-[(1-tetrahydro-2H-pyran-4-ylpiperidin-4-yl)amino]phenyl}sulfonyl)benzamide], for which the EC50 in the assay with RS4;11 cells (setting [1]) was 64.5 nM; in the assay with RS4;11 cells (setting [2]), 64 nM. The Ki at Bcl-2 (read-out: Bcl-2 FRET ki) was 0.074 nM.

Turning to `CC1(C)CCC(CN2CCN(c3ccc(C(=O)NS(=O)(=O)c4ccc(NC[C@H]5CCCOC5)c([N+](=O)[O-])c4)c(Oc4cnc5[nH]ccc5c4)c3)CC2)=C(c2ccc(Cl)cc2)C1` [Example 13, 4-(4-{[2-(4-chlorophenyl)-4,4-dimethylcyclohex-1-en-1-yl]methyl}piperazin-1-yl)-N-[(3-nitro-4-{[(3R)-tetrahydro-2H-pyran-3-ylmethyl]amino}phenyl)sulfonyl]-2-(1H-pyrrolo[2,3-b]pyridin-5-yloxy)benzamide], the EC50 in the assay on RS4;11 cells (setting [1]) was 23.2 nM; with RS4;11 cells (setting [2]) it was 23 nM. Besides, at Bcl-2 (setting [4]), the inhibitory constant (Ki) is less than 0.01 nM.

As to `CC1(C)CCC(CN2CCN(c3ccc(C(=O)NS(=O)(=O)c4ccc(OCC5CCN(C6COC6)CC5)c([N+](=O)[O-])c4)c(Oc4cnc5[nH]ccc5c4)c3)CC2)=C(c2ccc(Cl)cc2)C1` [Example 191, 4-(4-{[2-(4-chlorophenyl)-4,4-dimethylcyclohex-1-en-1-yl]methyl}piperazin-1-yl)-N-({3-nitro-4-[(1-oxetan-3-ylpiperidin-4-yl)methoxy]phenyl}sulfonyl)-2-(1H-pyrrolo[2,3-b]pyridin-5-yloxy)benzamide], in the assay with RS4;11 cells (setting [1]), the EC50 came to 6.91 nM. Further, the inhibition constant Ki at Bcl-2 (setting [3]) is less than 0.01 nM.

For the compound `CC1(C)CCC(CN2CCN(c3ccc(C(=O)NS(=O)(=O)c4ccc(OC[C@H]5CC[C@H](O)CC5)c([N+](=O)[O-])c4)c(Oc4cnc5[nH]ccc5c4)c3)CC2)=C(c2ccc(Cl)cc2)C1` [Example 120, 2-(1H-pyrrolo[2,3-b]pyridin-5-yloxy)-4-(4-((2-(4-chlorophenyl)-4,4-dimethylcyclohex-1-enyl)methyl)piperazin-1-yl)-N-(4-((trans-4-hydroxycyclohexyl)methoxy)-3-nitrophenylsulfonyl)benzamide], in the assay on RS4;11 cells (setting [1]), the EC50 is 1.47 nM. In addition, the Ki at Bcl-2 (setting [3]) was less than 0.01 nM.

Regarding `CC1(C)CCC(CN2CCN(c3ccc(C(=O)NS(=O)(=O)c4ccc(NCC5COCCN5C5CCOC5)c([N+](=O)[O-])c4)c(Oc4cnc5[nH]ccc5c4)c3)CC2)=C(c2ccc(Cl)cc2)C1` (stereo not shown) [Example 171, 4-(4-{[2-(4-chlorophenyl)-4,4-dimethylcyclohex-1-en-1-yl]methyl}piperazin-1-yl)-N-[(3-nitro-4-{[(4-tetrahydrofuran-3-ylmorpholin-3-yl)methyl]amino}phenyl)sulfonyl]-2-(1H-pyrrolo[2,3-b]pyridin-5-yloxy)benzamide], the EC50 in the assay on RS4;11 cells (setting [1]) was 52.7 nM.

Regarding `CC1(C)CCC(CN2CCN(c3ccc(C(=O)NS(=O)(=O)c4ccc(N[C@H]5CC[C@@H](N6CCOCC6)C5)c([N+](=O)[O-])c4)c(Oc4cnc5[nH]ccc5c4)c3)CC2)=C(c2ccc(Cl)cc2)C1` [Example 111, 4-(4-{[2-(4-chlorophenyl)-4,4-dimethylcyclohex-1-en-1-yl]methyl}piperazin-1-yl)-N-[(4-{[(1S,3R)-3-morpholin-4-ylcyclopentyl]amino)-3-nitrophenyl)sulfonyl]-2-(1H-pyrrolo[2,3-b]pyridin-5-yloxy)benzamide], the EC50 in the assay on RS4;11 cells (setting [1]) is 14.5 nM.

Turning to `CC1(C)CCC(CN2CCN(c3ccc(C(=O)NS(=O)(=O)c4ccc(NC[C@H]5CN(C6CC6)CCO5)c([N+](=O)[O-])c4)c(Oc4cnc5[nH]ccc5c4)c3)CC2)=C(c2ccc(Cl)cc2)C1` [Example 327, 4-(4-{[2-(4-chlorophenyl)-4,4-dimethylcyclohex-1-en-1-yl]methyl}piperazin-1-yl)-N-{[4-({[(2S)-4-cyclopropylmorpholin-2-yl]methyl}amino)-3-nitrophenyl]sulfonyl}-2-(1H-pyrrolo[2,3-b]pyridin-5-yloxy)benzamide], the EC50 with RS4;11 cells (setting [1]) was 2.72 nM.

As to `CC1(C)CCC(CN2CCN(c3ccc(C(=O)NS(=O)(=O)c4ccc(NCC5CCOCC5)c([N+](=O)[O-])c4)c(Oc4ccc5[nH]ccc5c4)c3)CC2)=C(c2ccc(Cl)cc2)C1` [Example 18, 4-(4-{[2-(4-chlorophenyl)-4,4-dimethylcyclohex-1-en-1-yl]methyl}piperazin-1-yl)-2-(1H-indol-5-yloxy)-N-({3-nitro-4-[(tetrahydro-2H-pyran-4-ylmethyl)amino]phenyl}sulfonyl)benzamide], the EC50 with RS4;11 cells (setting [1]) and in the assay on RS4;11 cells (setting [2]) was 86 nM each time.

For `CO[C@H]1CC[C@H](CNc2ccc(S(=O)(=O)NC(=O)c3ccc(N4CCN(CC5=C(c6ccc(Cl)cc6)CC(C)(C)CC5)CC4)cc3Oc3cnc4[nH]ccc4c3)cc2[N+](=O)[O-])CC1` [Example 34, Trans-4-(4-{[2-(4-chlorophenyl)-4,4-dimethylcyclohex-1-en-1-yl]methyl}piperazin-1-yl)-N-[(4-{[(4-methoxycyclohexyl)methyl]amino}-3-nitrophenyl)sulfonyl]-2-(1H-pyrrolo[2,3-b]pyridin-5-yloxy)benzamide], in the assay with RS4;11 cells (setting [1]), the EC50 worked out at 7.48 nM.
